The results in this text go back to paper PMC6452685, “Lysyl-tRNA synthetase as a drug target in malaria and cryptosporidiosis” (Proceedings of the National Academy of Sciences of the …, 2019).

In one series the test system is C. parvum. In words: Anti-Cryptosporidium in vivo efficacy in NOD SCID gamma mice. Set-up: species or system mouse. As for the experimental part: INF-γ–knockout mice ([28], [29]) were infected orally with Nluc-expressing transgenic C. parvum oocysts. Treatment started upon patency 4 d postinfection (p.i.), and mice were treated orally once a day for 7 d. Infection was monitored daily by luciferase measurements in pooled feces of the entire cage. Mice were followed for 3 wk after completion of drug treatment. […] NOD SCID gamma mice were infected with C. parvum oocysts ([26]). Treatment started 7 d p.i., and mice were treated orally once a day for 7 d. The study was run with four mice per cage; infection was monitored by quantitative PCR on day eight for individual mice, and data are shown as oocysts per milligram of feces. […]
Data analysis was performed using GraphPad Prism 7.0 (GraphPad S oftware), Excel 2016 (Microsoft ) and R free so ftware (https://www.r-project.org) for data pl otti ng and s tati s ti cal model li ng. […]
The Nl uc-C. parvum IFN-γ-knockout (IFN-γ KO) m ouse in vivo experiments were run in acco rdance with the publ i s hed method (22). Briefly, female C57BL/ 6 IFN-γ KO mi ce, aged 6–8 weeks were infected with 10,000 C. parvum UG A1 Nl uc (Vi naya k et al 2015, Natu re) tra ns g eni c oocys ts . Mi ce (n=5 per g rou p) w ere admi ni s t ered 20 mg /k g of comp o und 5 fo rmul ated i n 3% et hanol , 7% Tw een 8 0, 90 % saline or t he f ormul at i on (v ehi cl e) by o ral g av ag e. […]

For another series, the target named is T1, CYP2C9 (Homo sapiens, UniProt P11712).
T1 construct: purchased Cypex, Dundee, UK; host or cells: bacterial membranes (bactosomes)
In words: Fluorescence-based CYP inhibition, CYP2C9. It is filed as in vitro ADME. How it is done:
(§1) 4.7 F lu or e s ce nce-based CYP I nhibition usin g recombinantly expressed CYP b actosomes Fl uorogeni c C YP i nhi bi t i on s t udi es w ere c ondu ct ed at 37 °C i n 96-well, flat-bot t om, cl ear p ol y s t y rene pl at es. I ncubat i on mi xt ures cont ai ni ng Eas y C YP bact os omes (1000 pmol /ml , 10 mg /ml C y pex TM, Dundee, UK), fl uorogeni c substrate (Cypex TM) and 50 mM potas s i um phosphat e buffer (p H 7. 4) w er e prepared at t he fol l ow i ng fi nal concent rat i ons : C YP1A2, 5 pmol /ml + 35 µ M et hox y res orufi n (ER) ; CYP2C9, 10 pm ol/ml + 30 µM 7-methoxy-4-(tri fl uo romethy l )-coumari n (MFC ); C YP 2C 19, 5 pm ol /ml + 25 µM 3-cy ano-7-eth oxycoumarin (CEC); C YP 2D 6, 10 pmol /ml + 6 µM 7-meth oxy-4-(ami nomethy l )- coumari n (MAMC ); C YP 3A4, 10 pmol /ml + 1 µM diethoxyfluorescein (DEF) and 10 pmol /ml + 15 µM 7-benz y l ox y qui nol i ne (BQ ). […] 0125 ( 1A2 and 2C 9 onl y ) o r 0. 025 mg /ml (al l ot her i s oforms ). […] Positive control inhibitor, miconazole, was prepared as a 500 µM s olution in DMSO and similarly diluted.
(§2) For eac h i sofo rm, 2 20 µl of i ncubati on mi x was added to each wel l of a 96-well, flat-bot t om, cl ear pol y s t y rene pl at e. Al i quot s (5 µl) of each compound 5 conce ntrati on was then mi x ed wi th 220 µl of the incubation mix and pre-incubated at 37 °C for 5 min (final test compound concentration range: […]

Series [1] can be described thus: Hepatocyte stability, mouse. It counts as in vitro ADME. As for the experimental part: SUPPLEMENTARY INFORMATION where V (ml/mg protein) is the incubation volume/mg protein added (0.5) and microsomal protein yield is taken as being 52.5 mg protein per g liver. Verapami l (0. 5 µ M ) w as us ed as a pos i t i v e cont rol to confirm ac ceptable assay performance. Ex peri ments were performed us i ng a s i ngl e ti me-cours e […]
4.5 He pat ocy t e s t abilit y
Cryopreserved hepatocytes were used to take non-CYP mediated Phase I and Phase II enzymes into […]
than those determined using li v e r mi crosomes or other subcellular liver fractions and could be mo re predi ct i v e of a met abol i c rat e det ermi ned in vivo.
Cryopreserved mouse (batch MC539) and huma n (batch HU E50H) hepatocytes were supplied by ThermoFi sher Sci enti fi c, Pai sl ey, UK and Xenotech, LLC, respectively. Cryopreserved hepatocytes were rapidly thawed in a pre-heat ed w at er bat h at 37 °C before ad di ng to 50 ml of pre-warmed CHRM medi a (ThermoFi sher Sci enti fi c, Paisley, UK) and mi xed gentl y. […] […] 5 mi l li on v i abl e cel l s /ml i n s uppl emented W ME. Onl y s us pens i ons whi ch ac hi ev ed >80% pos t-thaw viability were us ed i n ex peri ment s . […]
DMSO and 0.25 million cells/ml. […]

Another series deals with T2, CYP2C19 (Homo sapiens, UniProt P33261).
T2 construct: purchased Cypex, Dundee, UK; host or cells: bacterial membranes (bactosomes)
In words: Fluorescence-based CYP inhibition, CYP2C19. It counts as in vitro ADME. As for the experimental part:
as §1, §2

The test system of another series is 44 receptor/enzyme panel. Briefly: Preliminary selectivity study in a 44 receptor/enzyme panel. To be noted: at a concentration of 10 μM.
In the next series the test system is C. hominis (TU502). Briefly: Activity against Cryptosporidium hominis. It counts as cell-based.
The nature of series [2]: Intrinsic clearance in human liver microsomes. It is filed as in vitro ADME.
For the next series, the system named is C. parvum Iowa strain. Briefly: In vitro inhibition of Cryptosporidium, C. parvum Iowa in HCT-8 cells (imaging). It counts as cell-based. To be noted: HCT-8, read-out: C. parvum Iowa strain EC50.

T1 sequence (P11712 whole entry): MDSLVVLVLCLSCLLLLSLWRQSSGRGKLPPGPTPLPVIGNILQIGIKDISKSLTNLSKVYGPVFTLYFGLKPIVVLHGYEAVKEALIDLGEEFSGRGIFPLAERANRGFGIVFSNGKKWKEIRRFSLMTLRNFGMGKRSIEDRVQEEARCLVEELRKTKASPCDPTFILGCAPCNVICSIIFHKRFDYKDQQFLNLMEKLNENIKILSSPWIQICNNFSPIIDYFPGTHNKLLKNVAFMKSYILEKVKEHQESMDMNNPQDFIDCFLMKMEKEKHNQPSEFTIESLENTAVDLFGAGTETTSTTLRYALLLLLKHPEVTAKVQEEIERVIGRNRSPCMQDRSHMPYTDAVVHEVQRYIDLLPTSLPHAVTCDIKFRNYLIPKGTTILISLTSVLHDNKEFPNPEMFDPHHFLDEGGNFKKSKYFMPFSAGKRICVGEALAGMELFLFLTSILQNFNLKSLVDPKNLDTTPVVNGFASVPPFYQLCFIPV
T2 sequence (P33261 whole entry): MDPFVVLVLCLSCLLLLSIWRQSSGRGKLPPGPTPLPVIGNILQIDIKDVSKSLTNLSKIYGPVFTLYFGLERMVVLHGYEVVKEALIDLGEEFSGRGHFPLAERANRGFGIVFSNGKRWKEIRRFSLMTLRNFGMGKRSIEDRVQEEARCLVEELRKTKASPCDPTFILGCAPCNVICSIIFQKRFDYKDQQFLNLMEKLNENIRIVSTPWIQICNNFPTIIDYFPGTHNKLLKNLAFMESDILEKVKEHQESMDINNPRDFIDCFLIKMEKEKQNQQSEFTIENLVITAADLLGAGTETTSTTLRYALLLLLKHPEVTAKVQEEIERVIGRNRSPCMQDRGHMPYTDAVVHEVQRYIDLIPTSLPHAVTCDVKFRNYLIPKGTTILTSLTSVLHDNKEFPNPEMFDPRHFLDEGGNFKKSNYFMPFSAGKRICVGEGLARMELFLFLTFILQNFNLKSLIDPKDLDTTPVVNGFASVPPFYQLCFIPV
Method for C. hominis (TU502): Thi s i s bas ed on methods previ ousl y reported (14). Mature P. falciparum stage V gametocytes (NF54)
were incubated with test compound for 24 h at 3 7°C i n 384-well plates containing complete culture
medi um (RPMI 1640, 25 mM HEPES, 2 g/l D-glucose, 2 g/l sodium bicarbonate, 50 mg/l
Gametogenesis was triggered by dis pens i ng 10 µl ookinete medium (RPMI 1640, 25 mM HEPES, 2 g/l
D-glucose, 2 g/l sodium bicarbonate, 50 mg/l hy pox ant hi ne, 100 µM xanthurenic acid) also
contai ni ng 2. 7 µg/ml anti-Pfs25-Cy3 into each well and cooling the plate on a metal block at 4 °C fo r
4 mi n. Fi fteen s l ater male gametogenesis was recorded by b ri ghtfi el d i magi ng usi ng ti m e s 6 object i v e
and then the pl ate stored at 2 6 °C for a fu rther 24 h to allow female gametes to develop. Female
gamete formation was assessed by fluorescence m icroscopy using x6 objective to identify anti-Pfs25-
gentian violet negative and positive controls.
3.1 3 Act iv it y a gains t Cry pt os pori diu m h omi nis (CALIBR)
Thi s i s bas ed on methods previ ousl y reported (10).

With `O=C(NCC1(O)CCC(F)(F)CC1)c1cc(=O)c2cc(F)ccc2o1` [Compound 5], the “reduction in parasite levels compared with control” value in the series on C. parvum (NOD SCID gamma mouse, 20 mg/kg orally once a day for 7 d, day 8) is 100 fold. Moreover, the “reduction of parasite burden” value in the series on C. parvum (dosed orally for 7 d, NOD SCID gamma mouse model) is “two orders of magnitude”. For the same compound, the IC50 at CYP2C9 and against CYP2C19 was more than 10 µM each time. The “Hepatocyte stability CLint” value in series [1] is 0.5 (mouse), <0.5 (human) mL⋅min^−1⋅g^−1. Moreover, the “activity in 44 receptor/enzyme panel” value in the series on 44 receptor/enzyme panel is on record as “no activity”. The 50% effective concentration (EC50) in the series with C. hominis (TU502) came out at 6 µM; in the series on C. parvum Iowa strain, 1.3 µM. In series [2], the “Microsomal stability CLint” value was less than 0.5 mL⋅min^−1⋅g^−1.
